Test results from patent US11427548B2 (Arvinas Operations, Inc., priority 2015, dated 2022).
Where two headings read alike, the source gives them in different places. Values belong to the molecule of their own block, whether it stands above or below them.

Molecular target: T1, Androgen Receptor (Homo sapiens, UniProt P10275)
T1 construct: endogenous in cells; host or cells: VCaP cells
T1 sequence (P10275 1-920): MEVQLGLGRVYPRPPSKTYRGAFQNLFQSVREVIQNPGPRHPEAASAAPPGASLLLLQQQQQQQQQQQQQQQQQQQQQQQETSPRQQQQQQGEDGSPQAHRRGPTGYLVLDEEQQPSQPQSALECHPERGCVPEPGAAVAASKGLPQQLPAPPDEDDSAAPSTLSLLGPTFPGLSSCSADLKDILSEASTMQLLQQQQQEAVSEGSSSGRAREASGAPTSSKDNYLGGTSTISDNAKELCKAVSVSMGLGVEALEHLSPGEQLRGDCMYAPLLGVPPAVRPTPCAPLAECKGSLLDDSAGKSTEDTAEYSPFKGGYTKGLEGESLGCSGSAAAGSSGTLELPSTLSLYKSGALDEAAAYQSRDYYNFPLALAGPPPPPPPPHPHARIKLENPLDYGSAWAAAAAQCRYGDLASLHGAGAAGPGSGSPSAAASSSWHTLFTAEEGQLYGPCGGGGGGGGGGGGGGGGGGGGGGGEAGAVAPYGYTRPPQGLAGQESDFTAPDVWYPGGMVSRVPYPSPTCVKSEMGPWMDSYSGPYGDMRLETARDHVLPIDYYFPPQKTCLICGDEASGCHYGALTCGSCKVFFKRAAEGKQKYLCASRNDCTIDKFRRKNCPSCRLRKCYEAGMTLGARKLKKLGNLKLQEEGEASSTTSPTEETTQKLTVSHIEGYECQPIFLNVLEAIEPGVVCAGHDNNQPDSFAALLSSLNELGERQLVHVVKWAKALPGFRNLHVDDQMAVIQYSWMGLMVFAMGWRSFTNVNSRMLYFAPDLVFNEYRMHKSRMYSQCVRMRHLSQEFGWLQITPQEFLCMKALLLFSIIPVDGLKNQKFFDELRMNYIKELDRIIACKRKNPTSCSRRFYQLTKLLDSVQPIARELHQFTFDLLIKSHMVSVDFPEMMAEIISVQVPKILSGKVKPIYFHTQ
Test: Androgen Receptor ELISA assay (PathScan AR ELISA) in VCaP cells: AR degradation, Dmax and DC50
Format: cell-based
Description: 1. Androgen Receptor ELISA Assay.
The protocols used with VCaP cells are described below. The androgen receptor ELISA assay was performed using PathScan AR ELISA (Cell Signaling Catalog #12850) according to the following assay steps:
VCaP cells are seeded at 30,000 cells/well at a volume of 200 μL/well in VCaP assay medium [Phenol red free RPMI (Gibco Cat #11835-030); 5% Charcoal Stripped (Dextran treated) FBS (Omega Scientific, Cat #FB-04); Pen/Strep Life Technologies (Gibco Cat #: 10378-016); 0.1 nM R1881 (Sigma, Cat #R0908) is added upon the start of the assay, not during initial plating of the cells) in Corning 3904 plates. The cells are grown for a minimum of 3 days.
First, cells are dosed with compounds diluted in 0.1% DMSO—use a polypropylene plate according to the following protocol: (1)(i) make 1000× stock plate in DMSO; (ii) 20 mM stock diluted 1/6.7 with DMSO (5 μL+28.3 μL DMSO)=3 mM into row H; (iii) perform serial dilutions in ½ log doses (10 μL of PROTAC+20 μL DMSO) from row H towards row B. Reserve row A for DMSO; (iv) 7 doses total (final concentration in this 1000× plate will be 3 mM, 1 mM, 333 μM, 111 μM, etc). (2)(i) Make 10× stock plate in media; (ii) transfer 2.5 μL of the 1000× stock to a new 10× stock plate (use 12 channel pipet, start at A (DMSO control) work thru H. When 247.5 μL of media is added to this plate, it will serve as a 10× stock; (iii) make media+1 nM R1881 for making 10× stock plate; (iv) add 247.5 μL of media with 1 nM R1881 to each well of the 10× stock plate, mix.
Then 22 μL of 10× stock is added to cells and incubated for 24 h. 1× Cell Signaling Cell lysis buffer is made (Catalogue #9803; comes with the kit)—prepare for 50 μL/well. Keep on ice. Media is aspirated, and 50 μL 1× cell lysis buffer/well is added. The cells are placed on ice for 10 minutes. The solution is mixed and transferred to PCR plate, and centrifuged at 4C for 10 minutes at 4000 rpm.
5 μL is transferred to fresh plate (use immediately or freeze −80 C); 115 μL ELISA Dilutant is added (0.15 ug/ml-0.075 ug/ml; comes with the PathScan ELISA).
Add 100 μL/well AR Elisa; cover and shake, 37 C for 2 hrs; dump, tap, wash 4×200 μL ELISA wash buffer; add 100 μL/well mouse AR detection Ab; cover and shake, 37 C for 1 hr; dump, tap, wash 4×200 μL ELISA wash buffer; add 100 μL/well anti-mouse—HRP conjugated Ab (comes with the kit); cover and shake, 37 C for 30 min; allow TMB reagent to come to room temperature; dump, tap, wash 4×200 μL Elisa wash buffer; tap; add 100 μL TMB, shake 5 min—while watching color. Add the stop reagent when light blue color develops. Add 100 μL Stop solution; shake and read at 450 nm.

[1] = VCaP cells; Table 36; read-out: VCaP DC50
[2] = VCaP, VCaP cells; Table 36; read-out: VCaP Dmax (%)
[3] = VCaP cells; Table 35; read-out: VCaP DC50
[4] = VCaP, VCaP cells; Table 35; read-out: VCaP Dmax (%)

- DC50 [1]: < 50 nM
- Dmax [2]: > 71%
Structure (SMILES): Cc1ncsc1-c1ccc([C@H](CO)NC(=O)C2C[C@@H](O)CN2C(=O)[C@@H](NC(=O)COCCN2CCCN(c3ccc(C(=O)NC4C(C)(C)C(Oc5ccc(C#N)c(Cl)c5)C4(C)C)cn3)CC2)C(C)(C)C)cc1 (stereo partly drawn) [Example 822, N-((1r,3r)-3-(3-chloro-4-cyanophenoxy)-2,2,4,4-tetramethylcyclobutyl)-6-(4-(2-(2-(((S)-1-((2S, 4R)-4-hydroxy-2-(((R)-2-hydroxy-1-(4-(4-methylthiazol-5-yl)phenyl)ethyl)carbamoyl)pyrrolidin-1-yl)-3,3-dimethyl-1-oxobutan-2-yl)amino)-2-oxoethoxy)ethyl)-1,4-diazepan-1-yl) nicotinamide]

Structure (SMILES): Cc1ncoc1-c1ccc(CNC(=O)[C@@H]2C[C@@H](O)CN2C(=O)[C@@H](NC(=O)COCCCCOc2ccc(-c3ccc(N4C(=S)N(c5cnc(C#N)c(C(F)(F)F)c5)C(=O)C45CCC5)cc3)cc2)C(C)(C)C)cc1 [Example 198, (2S,4R)-1-[(2S)-2-(2-{4-[4-(4-{7-[6-cyano-5-(trifluoromethyl)pyridin-3-yl]-8-oxo-6-sulfanylidene-5,7-diazaspiro[3.4]octan-5-yl}phenyl)phenoxy]butoxy}acetamido)-3,3-dimethylbutanoyl]-4-hydroxy-N-{[4-(4-methyl-1,3-oxazol-5-yl)phenyl]methyl}pyrrolidine-2-carboxamide]
- DC50 (VCaP cells; concentration that caused 50% Androgen Receptor degradation; read-out: VCaP DC50): < 50 nM
- Dmax (VCaP, VCaP cells; highest percentage of Androgen Receptor degradation; read-out: VCaP Dmax (%)): 51 to 70%

Structure (SMILES): Cc1ncsc1-c1ccc(CNC(=O)[C@@H]2C[C@@H](O)CN2C(=O)C(C(C)C)n2cccc(OCCCCOc3ccc(-c4ccc(N5C(=S)N(c6ccc(C#N)c(C(F)(F)F)c6)C(=O)C5(C)C)cc4)cc3)c2=O)cc1 (stereo partly drawn) [Example 395]
- Dmax (VCaP, read-out: VCaP Dmax (%)): < 25%

Structure (SMILES): Cc1ncsc1-c1ccc([C@H](C)NC(=O)[C@@H]2C[C@@H](O)CN2C(=O)[C@@H](NC(=O)COCCCCOCCCCOc2ccc(N3C(=S)N(c4ccc(C#N)c(C(F)(F)F)c4)C(=O)C3(C)C)cc2)C(C)(C)C)cc1 [Example 373]
- Dmax (VCaP, read-out: VCaP Dmax (%)): 51 to 70%
- DC50 (read-out: VCaP DC50; VCaP cells; Table 34): < 50 nM

Structure (SMILES): Cc1ncsc1-c1ccc(CNC(=O)[C@@H]2C[C@@H](O)CN2C(=O)[C@@H](C(C)C)n2cc(OCCCOCCCCCOc3ccc(N4C(=S)N(c5ccc(C#N)c(C(F)(F)F)c5)C(=O)C4(C)C)cc3)cn2)nc1 (racemic) [Example 431]
- Dmax (VCaP, read-out: VCaP Dmax (%)): < 25%
- DC50 (read-out: VCaP DC50; VCaP cells; Table 35): > 501 nM

Structure (SMILES): CC(C)(C)[C@H](NC(=O)COCCCOCCCCOc1ccc(N2C(=S)N(c3cnc(C#N)c(C(F)(F)F)c3)C(=O)C2(C)C)cc1F)C(=O)N1C[C@H](O)C[C@H]1C(=O)NCc1ccc(-c2cnco2)cc1 [Example 47, (2S,4R)-1-[(2S)-2-(2-{3-[4-(4-{3-[6-cyano-5-(trifluoromethyl)pyridin-3-yl]-5,5-dimethyl-4-oxo-2-sulfanylideneimidazolidin-1-yl}-2-fluorophenoxy)butoxy]propoxy}acetamido)-3,3-dimethylbutanoyl]-4-hydroxy-N-{[4-(1,3-oxazol-5-yl)phenyl]methyl}pyrrolidine-2-carboxamide]
- Dmax (VCaP, highest percentage of Androgen Receptor degradation observed, VCaP cells; read-out: VCaP Dmax (%)): 51 to 70%
- DC50 (concentration that caused 50% Androgen Receptor degradation, VCaP cells; read-out: VCaP DC50): < 50 nM

Structure (SMILES): Cc1ncsc1-c1ccc([C@@H](C)NC(=O)[C@@H]2C[C@@H](O)CN2C(=O)[C@@H](NC(=O)COCCCCOc2ccc(C(=O)N[C@H]3C(C)(C)[C@H](Oc4ccc(C#N)c(Cl)c4)C3(C)C)cc2)C(C)(C)C)cc1 [Example 171, (2S,4R)-1-[(2S)-3,3-dimethyl-2-{2-[4-(4-{[trans-3-(3-chloro-4-cyanophenoxy)-2,2,4,4-tetramethylcyclobutyl]carbamoyl}phenoxy)butoxy]acetamido}butanoyl]-4-hydroxy-N-[(1R)-1-[4-(4-methyl-1,3-thiazol-5-yl)phenyl]ethyl]pyrrolidine-2-carboxamide]
- Dmax (VCaP, highest percentage of Androgen Receptor degradation observed, VCaP cells (Table 32); read-out: VCaP Dmax (%)): 26 to 50%
- DC50 (concentration that caused 50% Androgen Receptor degradation, VCaP cells (Table 32); read-out: VCaP DC50): < 50 nM

- DC50 [3]: < 50 nM
- Dmax [4]: > 71%
Structure (SMILES): Cc1ncsc1-c1ccc(CNC(=O)[C@@H]2C[C@@H](O)CN2C(=O)[C@@H](NC(=O)COCCOc2ccc(-c3c(F)cc(C(=O)N[C@H]4C(C)(C)[C@H](Oc5ccc(C#N)c(Cl)c5)C4(C)C)cc3F)cc2)C(C)(C)C)cc1 [Example 543]

- DC50 [3]: < 50 nM
- Dmax [4]: 51 to 70%
Structure (SMILES): CC(C)(C)[C@H](NC(=O)COCCCCCNc1ccc(C(=O)N[C@H]2C(C)(C)[C@H](Oc3ccc(C#N)c(Cl)c3)C2(C)C)cc1)C(=O)N1C[C@H](O)C[C@H]1C(=O)NCc1ccc(-n2ncnn2)cc1 [Example 506]

Structure (SMILES): Cc1ncsc1-c1ccc(CNC(=O)[C@@H]2C[C@@H](O)CN2C(=O)[C@@H](NC(=O)COCCCCNc2ccc(-c3ccc(N4C(=S)N(c5ccc(C#N)c(C(F)(F)F)c5)C(=O)C4(C)C)cc3)cc2)C(C)(C)C)cc1 [Example 103, (2S,4R)-1-[(2S)-2-[2-(4-{[4-(4-{3-[4-cyano-3-(trifluoromethyl)phenyl]-5,5-dimethyl-4-oxo-2-sulfanylideneimidazolidin-1-yl}phenyl)phen-yl]amino}butoxy)acetamido]-3,3-dimethylbutanoyl]-4-hydroxy-N-{[4-(4-methyl-1,3-thiazol-5-yl)phenyl]methyl}pyrrolidine-2-carboxamide]
- Dmax (VCaP, read-out: VCaP Dmax (%)): > 71%
- DC50 (read-out: VCaP DC50; concentration that caused 50% Androgen Receptor degradation, VCaP cells (Table 32)): < 50 nM

- DC50 [1]: < 50 nM
- Dmax [2]: > 71%
Structure (SMILES): Cc1ncsc1-c1ccc([C@H](CO)NC(=O)[C@@H]2C[C@@H](O)CN2C(=O)[C@@H](NC(=O)COCCN2CCN(c3ccc(C(=O)N[C@H]4C(C)(C)[C@H](Oc5ccc(C#N)c(Cl)c5)C4(C)C)cn3)CC2)C(C)(C)C)cc1 [Example 812, N-((1r,3r)-3-(3-chloro-4-cyanophenoxy)-2,2,4,4-tetramethylcyclobutyl)-6-(4-(2-(2-(((S)-1-((2S, 4R)-4-hydroxy-2-(((R)-2-hydroxy-1-(4-(4-methylthiazol-5-yl)phenyl)ethyl)carbamoyl)pyrrolidin-1-yl)-3,3-dimethyl-1-oxobutan-2-yl)amino)-2-oxoethoxy)ethyl)piperazin-1-yl) nicotinamide]
